Patent publication US8022206B2 (OSI Pharmaceuticals, LLC, priority 2008, dated 2011)

What was measured:
RON (human) = RON (human) (Homo sapiens, UniProt Q04912); experiment: RON (human) AlphaScreen kinase assay, Km of ATP; format: biochemical; settings: AlphaScreen, Km of ATP; read-out: RON biochemical IC50
Experimental: (§1) Someone skilled in the art will appreciate that a variety of assay formats may be used to determine the activity of the compounds of this invention. For example, AlphaScreen (Amplified Luminescent Proximity Homogeneous Assay) technology was used with the kinases described below. Assay ATP concentrations for individual kinases are included in the text.
Desired compound is added in a final concentration of 1% DMSO with control being vehicle of DMSO alone. […] Enzyme is added to initiate the reaction and incubated for 30 min at RT. In subdued light, appropriate amount of PT66 donor and acceptor beads (diluted 1:260 from manufacturer's provision in a 25 mM Tris HCl (pH=7.5), 200 mM NaCl, 100 mM EDTA, 0.3% BSA buffer) are added to the wells. The plates, incubated for 1 h, are read on an AlphaQuest plate reader.

MET (human) = MET (human) (Homo sapiens, UniProt P08581); experiment: MET (human) AlphaScreen kinase assay, Km of ATP; format: biochemical; settings: AlphaScreen, Km of ATP; read-out: Met biochemical IC50
Sequence of MET (human) (P08581 25-1390): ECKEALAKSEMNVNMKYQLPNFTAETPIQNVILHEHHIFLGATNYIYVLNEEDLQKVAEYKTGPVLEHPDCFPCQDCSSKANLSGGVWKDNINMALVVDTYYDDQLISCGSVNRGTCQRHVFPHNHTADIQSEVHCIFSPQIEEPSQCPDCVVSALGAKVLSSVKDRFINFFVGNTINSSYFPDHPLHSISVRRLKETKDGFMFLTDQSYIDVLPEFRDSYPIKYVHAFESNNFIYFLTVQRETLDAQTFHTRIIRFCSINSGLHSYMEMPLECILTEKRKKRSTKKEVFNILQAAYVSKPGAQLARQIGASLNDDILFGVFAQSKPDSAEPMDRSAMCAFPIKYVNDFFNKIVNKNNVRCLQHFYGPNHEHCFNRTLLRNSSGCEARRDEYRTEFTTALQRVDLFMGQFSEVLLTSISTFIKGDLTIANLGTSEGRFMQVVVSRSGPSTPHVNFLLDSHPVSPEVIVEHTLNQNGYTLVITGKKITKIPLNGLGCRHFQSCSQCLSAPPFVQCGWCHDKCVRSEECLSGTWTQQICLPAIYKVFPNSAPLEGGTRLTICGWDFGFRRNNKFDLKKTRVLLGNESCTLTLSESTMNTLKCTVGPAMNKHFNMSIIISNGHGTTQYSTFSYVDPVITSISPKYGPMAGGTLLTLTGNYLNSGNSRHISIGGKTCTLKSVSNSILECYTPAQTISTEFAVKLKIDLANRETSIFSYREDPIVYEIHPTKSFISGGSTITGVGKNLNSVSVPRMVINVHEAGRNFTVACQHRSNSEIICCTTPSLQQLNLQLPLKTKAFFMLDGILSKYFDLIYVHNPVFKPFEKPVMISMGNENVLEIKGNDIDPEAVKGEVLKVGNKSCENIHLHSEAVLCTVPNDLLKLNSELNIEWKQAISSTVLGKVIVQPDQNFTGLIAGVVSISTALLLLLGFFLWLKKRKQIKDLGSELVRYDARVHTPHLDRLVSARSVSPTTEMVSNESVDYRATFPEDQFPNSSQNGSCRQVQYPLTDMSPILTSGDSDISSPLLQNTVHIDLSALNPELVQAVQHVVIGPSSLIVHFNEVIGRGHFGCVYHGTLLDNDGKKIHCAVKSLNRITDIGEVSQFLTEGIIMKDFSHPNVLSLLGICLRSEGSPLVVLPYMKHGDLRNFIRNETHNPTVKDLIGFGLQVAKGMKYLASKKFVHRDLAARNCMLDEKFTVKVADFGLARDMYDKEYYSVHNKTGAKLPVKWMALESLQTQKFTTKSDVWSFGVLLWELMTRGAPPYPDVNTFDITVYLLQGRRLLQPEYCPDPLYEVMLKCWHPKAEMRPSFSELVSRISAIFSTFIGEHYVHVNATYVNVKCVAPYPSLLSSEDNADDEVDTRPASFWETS
Experimental: as §1
Desired compound is added in a final concentration of 1% DMSO with control being vehicle of DMSO alone. MET is diluted to the optimized concentration (optimized on a lot-by-lot basis) in an enzyme diluent buffer (50 mM Tris pH=7.4, 1% glycerol, 0.03% Brij35, 0.24 mM EGTA, 1 mM DTT, and 0.003% BSA). Enzyme is added to initiate the reaction and incubated for 60 min at RT. In subdued light, appropriate amount of PT66 donor and acceptor beads (diluted 1:260 from manufacturer's provision in a 25 mM Tris HCl (pH=7.5), 400 mM NaCl, 100 mM EDTA, 0.3% BSA buffer) are added to the wells. The plates, incubated for 1 h, are read on an AlphaQuest plate reader

Sequence of RON (human) (Q04912 25-1400): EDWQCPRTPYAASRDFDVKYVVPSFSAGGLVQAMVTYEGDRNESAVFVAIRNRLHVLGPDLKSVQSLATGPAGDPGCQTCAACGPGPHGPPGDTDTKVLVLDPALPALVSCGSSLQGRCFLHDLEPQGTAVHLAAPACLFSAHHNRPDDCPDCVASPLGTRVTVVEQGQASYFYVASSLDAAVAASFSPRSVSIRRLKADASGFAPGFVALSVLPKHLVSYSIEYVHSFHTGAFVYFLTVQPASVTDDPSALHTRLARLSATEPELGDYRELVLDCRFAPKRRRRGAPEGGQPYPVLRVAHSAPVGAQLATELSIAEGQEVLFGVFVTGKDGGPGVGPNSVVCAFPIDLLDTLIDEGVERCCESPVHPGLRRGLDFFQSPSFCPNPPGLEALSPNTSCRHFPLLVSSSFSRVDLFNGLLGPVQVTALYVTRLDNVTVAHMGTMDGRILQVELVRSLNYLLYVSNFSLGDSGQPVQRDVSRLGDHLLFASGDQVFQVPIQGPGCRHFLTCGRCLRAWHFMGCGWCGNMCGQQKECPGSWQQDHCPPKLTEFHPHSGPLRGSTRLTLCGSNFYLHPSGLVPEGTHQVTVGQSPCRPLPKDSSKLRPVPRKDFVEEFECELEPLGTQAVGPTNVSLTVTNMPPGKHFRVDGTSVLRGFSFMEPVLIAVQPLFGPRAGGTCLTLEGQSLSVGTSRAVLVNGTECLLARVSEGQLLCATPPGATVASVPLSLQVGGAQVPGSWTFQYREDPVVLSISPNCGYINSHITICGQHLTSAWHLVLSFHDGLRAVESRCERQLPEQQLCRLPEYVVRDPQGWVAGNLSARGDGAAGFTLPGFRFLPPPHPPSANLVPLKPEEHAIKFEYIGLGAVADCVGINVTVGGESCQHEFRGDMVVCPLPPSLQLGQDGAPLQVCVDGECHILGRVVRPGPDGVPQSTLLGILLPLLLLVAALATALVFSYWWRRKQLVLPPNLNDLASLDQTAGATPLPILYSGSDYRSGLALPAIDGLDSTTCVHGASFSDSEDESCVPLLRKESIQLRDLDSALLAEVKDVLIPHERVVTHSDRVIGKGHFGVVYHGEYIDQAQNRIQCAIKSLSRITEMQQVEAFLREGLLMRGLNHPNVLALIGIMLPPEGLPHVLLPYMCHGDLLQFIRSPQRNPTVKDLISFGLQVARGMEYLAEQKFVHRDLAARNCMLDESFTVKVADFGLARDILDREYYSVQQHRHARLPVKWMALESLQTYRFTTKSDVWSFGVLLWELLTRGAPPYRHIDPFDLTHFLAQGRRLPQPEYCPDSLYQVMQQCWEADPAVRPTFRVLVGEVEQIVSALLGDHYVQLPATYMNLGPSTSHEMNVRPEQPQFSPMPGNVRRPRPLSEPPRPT

IC50 (RON (human))	IC50 (MET (human))	SMILES
500 to 5000 nM	500 to 5000 nM	Cc1ccc(-c2coc3c(O[C@H](C)c4c(Cl)ccc(F)c4Cl)c(N)ncc23)o1 [Example 117]
< 500 nM	< 500 nM	CCN1CC2CC1CN2C(=O)N1CC=C(c2coc3c(O[C@H](C)c4c(Cl)ccc(F)c4Cl)c(N)ncc23)CC1 (stereo partly drawn) [Example 222, (4-{6-Amino-7-[(R)-1-(2,6-dichloro-3-fluorophenyl)ethoxy]-furo[3,2-c]pyridin-3-yl}-3,6-dihydro-2H-pyridin-1-yl)-(5-ethyl-2,5-diazabicyclo[2.2.1]hept-2-yl)-methanone]
500 to 5000 nM	500 to 5000 nM	COC(=O)N1CCC(n2cc(-c3coc4c(O[C@H](C)c5c(Cl)ccc(F)c5Cl)c(N)ncc34)cn2)CC1 [Example 274, Methyl 4-(4-{6-Amino-7-[(1R)-1-(2,6-dichloro-3-fluorophenyl)ethoxy]furo[3,2-c]pyridin-3-yl}-1H-pyrazol-1-yl)piperidine-1-carboxylate]
500 to 5000 nM	500 to 5000 nM	C[C@@H](Oc1c(N)ncc2c(C3=CCN(C(=O)N4CCOCC4)CC3)coc12)c1c(Cl)ccc(F)c1Cl [Example 31, (4-{6-Amino-7-[(R)-1-(2,6-dichloro-3-fluorophenyl)-ethoxy]-furo[3,2-c]pyridin-3-yl}-3,6-dihydro-2H-pyridin-1-yl)-morpholin-4-ylmethanone]
< 500 nM	< 500 nM	C[C@@H](Oc1c(N)ncc2c(-c3ccc(N4CCN(C)CC4)nc3)coc12)c1c(Cl)ccc(F)c1Cl [Example 88, 7-[(R)-1-(2,6-Dichloro-3-fluorophenyl)ethoxy]-3-[6-(4-methylpiperazin-1-yl)pyridin-3-yl]furo[3,2-c]pyridin-6-ylamine]
500 to 5000 nM	500 to 5000 nM	C[C@@H](Oc1c(N)ncc2c(C3=CCN(C4CN(S(C)(=O)=O)C4)CC3)coc12)c1c(Cl)ccc(F)c1Cl [Example 323]
500 to 5000 nM	< 500 nM	C[C@@H](Oc1c(N)ncc2c(C3=CCN(C(=O)[C@@H](N)Cc4ccccc4)CC3)coc12)c1c(Cl)ccc(F)c1Cl [Example 256, (2S)-2-Amino-1-[4-{6-amino-7-[(1R)-1-(2,6-dichloro-3-fluoro-phenyl)ethoxy]furo[3,2-c]pyridin-3-yl}-3,6-dihydropyridin-1(2H)-yl]-3-phenylpropan-1-one]
500 to 5000 nM	< 500 nM	C[C@@H](Oc1c(N)ncc2c(C3=CCS(=O)(=O)CC3)coc12)c1c(Cl)ccc(F)c1Cl [Example 140, 7-[(1R)-1-(2,6-Dichloro-3-fluorophenyl)ethoxy]-3-(1,1-dioxido-3,6-dihydro-2H-thiopyran-4-yl)furo[3,2-c]pyridin-6-amine]
500 to 5000 nM	< 500 nM	C[C@@H](Oc1c(N)ncc2c(C3=CCN(c4c(N)c(=O)c4=O)CC3)coc12)c1c(Cl)ccc(F)c1Cl [Example 205, 3-Amino-4-(4-{6-amino-7-[(R)-1-(2,6-dichloro-3-fluorophenyl)ethoxy]-furo[3,2-c]pyridin-3-yl}-3,6-dihydro-2H-pyridin-1-yl)-cyclobut-3-ene-1,2-dione]
< 500 nM	< 500 nM	C[C@@H](Oc1c(N)ncc2c(C3=CCN(C(=O)[C@]4(C)CCCN4)CC3)coc12)c1c(Cl)ccc(F)c1Cl [Example 160, [4-{6-Amino-7-[(1R)-1-(2,6-dichloro-3-fluorophenyl)ethoxy]furo[3,2-c]pyridin-3-yl}-3,6-dihydropyridin-1(2H)-yl][(2S)-2-methylpyrrolidin-2-yl]methanone]
< 500 nM	< 500 nM	C[C@@H](Oc1c(N)ncc2c(C3=CCN(C(=O)[C@H]4CCCNC4)CC3)coc12)c1c(Cl)ccc(F)c1Cl [Example 240, (4-{6-Amino-7-[(R)-1-(2,6-dichloro-3-fluorophenyl)ethoxy]-furo[3,2-c]pyridin-3-yl}-3,6-dihydro-2H-pyridin-1-yl)-(S)-piperidin-3-ylmethanone]
< 500 nM	500 to 5000 nM	CC(C)[C@H](O)C(=O)N1CC=C(c2coc3c(O[C@H](C)c4c(Cl)ccc(F)c4Cl)c(N)ncc23)CC1 [Example 267, (2S)-1-[4-{6-Amino-7-[(1R)-1-(2,6-dichloro-3-fluorophenyl)ethoxy]furo[3,2-c]pyridin-3-yl}-3,6-dihydropyridin-1(2H)-yl]-2-hydroxy-3-methylbutan-1-one]
< 500 nM	< 500 nM	C[C@@H](Oc1c(N)ncc2c(C3=CCN(C(=O)C4CCCCN4C)CC3)coc12)c1c(Cl)ccc(F)c1Cl (stereo partly drawn) [Example 236, (4-{6-Amino-7-[(R)-1-(2,6-dichloro-3-fluorophenyl)ethoxy]-furo[3,2-c]pyridin-3-yl}-3,6-dihydro-2H-pyridin-1-yl)-(1-methylpiperidin-2-yl)methanone]

More lines, now with the values behind:

SMILES	IC50 (RON (human))	IC50 (MET (human))
C[C@@H](Oc1c(N)ncc2c(C3=CCN(C)CC3)coc12)c1c(Cl)ccc(F)c1Cl [Example 37, 7-[(R)-1-(2,6-Dichloro-3-fluorophenyl)-ethoxy]-3-(1-methyl-1,2,3,6-tetrahydropyridin-4-yl)-furo[3,2-c]pyridin-6-ylamine]	< 500 nM	< 500 nM
CCNC(=O)c1ccc(-c2coc3c(O[C@H](C)c4c(Cl)ccc(F)c4Cl)c(N)ncc23)s1 [Example 207, 5-{6-Amino-7-[(R)-1-(2,6-dichloro-3-fluorophenyl)ethoxy]-furo[3,2-c]pyridin-3-yl}-thiophene-2-carboxylic acid ethyl amide]	500 to 5000 nM	500 to 5000 nM
CC(Cc1c(F)cccc1Cl)Oc1c(N)ncc2c(-c3cnn(C4CCNCC4)c3)coc12 (stereo not shown) [Example 419, 7-[2-(2-Chloro-6-fluorophenyl)-1-methylethoxy]-3-(1-piperidin-4-yl-1H-pyrazol-4-yl)furo[3,2-c]pyridin-6-ylamine]	500 to 5000 nM	500 to 5000 nM
C[C@@H](Oc1c(N)ncc2c(C3=CCN(C4CCC4)CC3)coc12)c1c(Cl)ccc(F)c1Cl [Example 44, 3-(1-Cyclobutyl-1,2,3,6-tetrahydropyridin-4-yl)-7-[(R)-1-(2,6-dichloro-3-fluorophenyl)-ethoxy]-furo[3,2-c]pyridin-6-ylamine]	< 500 nM	< 500 nM
C[C@@H](Oc1c(N)ncc2c(-c3ccc[nH]3)coc12)c1c(Cl)ccc(F)c1Cl [Example 133, 7-[(R)-1-(2,6-Dichloro-3-fluorophenyl)ethoxy]-3-(1H-pyrrol-2-yl)furo[3,2-c]pyridin-6-amine]	500 to 5000 nM	500 to 5000 nM
C[C@@H](Oc1c(N)ncc2c(C3=CCN(C(C)(C)C)CC3)coc12)c1c(Cl)ccc(F)c1Cl [Example 163, 3-(1-tert-Butyl-1,2,3,6-tetrahydropyridin-4-yl)-7-[(1R)-1-(2,6-dichloro-3-fluorophenyl)ethoxy]furo[3,2-c]pyridin-6-amine]	< 500 nM	< 500 nM
COc1ccccc1CC(C)Oc1c(N)ncc2c(-c3cnn(C4CCNCC4)c3)coc12 (stereo not shown) [Example 406, 7-[2-(2-Methoxyphenyl)-1-methylethoxy]-3-(1-piperidin-4-yl-1H-pyrazol-4-yl)furo[3,2-c]pyridin-6-ylamine]	< 500 nM	< 500 nM
CC(Oc1c(N)ncc2c(-c3cnn(C4CCNCC4)c3)coc12)c1c(Cl)c(F)cc(OC2CCNCC2)c1Cl (stereo not shown) [Example 158, 7-{1-[2,6-Dichloro-3-fluoro-5-(piperidin-4-yloxy)phenyl]ethoxy}-3-[1-(piperidin-4-yl)-1H-pyrazol-4-yl]furo[3,2-c]pyridin-6-amine]	< 500 nM	< 500 nM
CC(C)NC(=O)c1coc2c(O[C@H](C)c3c(Cl)ccc(F)c3Cl)c(N)ncc12 [Example 183, 6-Amino-7-[(R)-1-(2,6-dichloro-3-fluorophenyl)ethoxy]furo[3,2-c]pyridine-3-carboxylic acid isopropylamide]	500 to 5000 nM	500 to 5000 nM
CC(Cc1cccc(Cl)c1)Oc1c(N)ncc2c(-c3cnn(C4CCNCC4)c3)coc12 (stereo not shown) [Example 427, 7-[2-(3-Chlorophenyl)-1-methylethoxy]-3-(1-piperidin-4-yl-1H-pyrazol-4-yl)furo[3,2-c]pyridin-6-ylamine]	< 500 nM	< 500 nM
C[C@H](Oc1c(N)ncc2c(-c3cnn(C4CCNCC4)c3)coc12)c1nnc2ccc(-c3cnn(C)c3)nn12 [Example 479, 7-{(1S)-1-[6-(1-methyl-1H-pyrazol-4-yl) [1,2,4]triazolo[4,3-b]pyridazin-3-yl]ethoxy}-3-[1-(piperidin-4-yl)-1H-pyrazol-4-yl]furo[3,2-c]pyridin-6-amine]	5000 to 20000 nM	500 to 5000 nM
C[C@H](Oc1c(N)ncc2c(-c3cnn(C4CCNCC4)c3)coc12)c1nnc2ccc(-c3ccccc3)nn12 [Example 478, 7-[(1S)-1-(6-phenyl[1,2,4]triazolo[4,3-b]pyridazin-3-yl)ethoxy]-3-[1-(piperidin-4-yl)-1H-pyrazol-4-yl]furo[3,2-c]pyridin-6-amine]	> 20000 nM	500 to 5000 nM
CC(Oc1c(N)ncc2c(-c3cnn(C4CCNCC4)c3)coc12)c1ccc(C#N)cc1 (stereo not shown) [Example 394, 4-{1-[6-Amino-3-(1-piperidin-4-yl-1H-pyrazol-4-yl)furo[3,2-c]pyridin-7-yloxy]ethyl}benzonitrile]	500 to 5000 nM	< 500 nM
